Columns and labels:
[1] = test system: B-cell non-Hodgkin lymphoma; experiment: Single agent (monotherapy) clinical study in B-cell non-Hodgkin lymphoma patients; type: in vivo
[2] = Environmental stability (heat, acid, base); type: physicochemical
[3] = Safety in single dose studies in healthy subjects; type: in vivo, human

Row | SMILES | patients with stable disease continuing on treatment ([1]; B-cell non-Hodgkin lymphoma, monotherapy, as of Sep. 11, 2012) | patients with decreased lymph node size ([1]; evaluable B-NHL patients, monotherapy) | environmental instabilities (heat, acid, base) [2] | maximum tolerated dose (MTD) ([1]; single agent, up to 750 mg PO QD) | safety [3]
1 | C=CC(=O)Nc1cccc(Nc2nc(Nc3ccc(OCCOC)cc3)ncc2F)c1.O=S(=O)(O)c1ccccc1 [Compound 1 besylate, N-(3-(5-fluoro-2-(4-(2-methoxyethoxy)phenylamino)pyrimidin-4-ylamino)phenyl)acrylamide benzenesulfonic acid salt] | 9 out of 17 | Six of eleven | no environmental instabilities |  | 
2 | C=CC(=O)Nc1cccc(Nc2nc(Nc3ccc(OCCOC)cc3)ncc2F)c1 [Compound 1, N-(3-(5-fluoro-2-(4-(2-methoxyethoxy)phenylamino)pyrimidin-4-ylamino)phenyl)acrylamide] |  |  |  | has not yet been reached | adequate safety

Source: patent US20140142129A1, “METHODS OF TREATING A DISEASE OR DISORDER ASSOCIATED WITH BRUTON'S TYROSINE KINASE” (Celgene Avilomics Research, Inc,, priority 2012, published 2014)
